Measurements as given in article PMC5557808 (Nature Communications, 2017).
Where “and” joins values, the source holds several entries; their conditions need not be identical. Equal values may be shown once. Where a SMILES comes first, the peptide text is derived from it. [ ]: non-standard residue; d: D form. The star is where a group is joined. X1 = CC[N+](CC)(CC(=O)Nc1c(C)cccc1C)Cc1cccc(C(=O)*)c1; Aha = [N-]=[N+]=NCC[C@H](N)C(=O)O

Assay: Cleavage of PCL denatonium conjugate in collected saliva
Type: in vitro ADME, human
Conditions: agitation, mean ± s.d.
Description: Volunteers were enrolled for a cross-sectional study. One group had peri-implant disease (defined as peri-implantitis or mucositis), the other group were healthy volunteers (asymptomatic patients with at least one dental implant). Unstimulated saliva was collected using an absorbent device. Sulcus fluid was collected from the peri-implant zone using standardized, commercially available MMP-8 collection strips and sent to Dentognostics GmbH (Jena, Germany) for analysis (referred to as chair-side test). Determination of total MMP activity in saliva samples was conducted using the human MMP-8 activity assay (QuickZyme, Leiden, the Netherlands) according to the manufacturer’s instructions. Saliva samples from the cross-sectional study were incubated with D-CLAN3Q (ID #1c) in MMP-8 buffer and cleavage was analyzed by HPLC. Further details are given in the Supplementary Methods.
For the collection of sulcus fluid and saliva from peri-implant d iseased p atien ts and fro m health y volunteers, a cross-section al stud y was initiated with the patient group having either a mucositis or a per i-implantitis vs. health y control. […] In this comparative study, the ability of the sensor diagnostic was assessed to discriminate saliva collected fro m p atien ts with peri -imp lan t disease to as ymp to matic carriers of at least on e i mplant (referred to as healthy control). […]

CC[C@H](C)[C@H](NC(=O)CNC(=O)[C@H](CCC(N)=O)NC(=O)[C@@H]1CCCN1C(=O)CNC(=O)c1cccc(C[N+](CC)(CC)CC(=O)Nc2c(C)cccc2C)c1)C(=O)N[C@@H](C)C(=O)NCC(=O)N[C@@H](CCC(N)=O)C(=O)N[C@@H](CCN=[N+]=[N-])C(=O)N[C@@H](CCC(N)=O)C(=O)O [ID #1c] (X1-GPQGIAGQ[Aha]Q-OH)
Cleavage in saliva, healthy subjects, 5-10 min (saliva of healthy volunteers (n = 14) 1:1 with 0.1 mg/mL peptide in MMP buffer pH 6.8-7.0, 37 °C, HPLC decrease of main peak): 1.5 ± 0.8%
Cleavage in saliva, diseased subjects, 5-10 min (saliva of patients with peri-implant disease (n = 19) 1:1 with 0.1 mg/mL peptide in MMP buffer pH 6.8-7.0, 37 °C, HPLC): 4.2 ± 3.34% and < 5%
